We go through one compound from paper PMC10165104, “The immunosuppressive effects and mechanisms of loureirin B on collagen-induced arthritis in rats” (Frontiers in Immunology, 2023).

For orientation: IC50 means the concentration that inhibits the measured activity by half. A low value points to greater potency in that assay.

Molecules are shown by their SMILES.

The experiment concerns the target T1, Kv1.3 (mKv1.3) voltage-gated potassium channel (Mus musculus, UniProt P16390).
T1 construct: gene Kcna3
Briefly: whole-cell voltage clamp of mKv1.[…] expressed in HEK293T cells. The format is cell-based.

T1 sequence (P16390 whole entry): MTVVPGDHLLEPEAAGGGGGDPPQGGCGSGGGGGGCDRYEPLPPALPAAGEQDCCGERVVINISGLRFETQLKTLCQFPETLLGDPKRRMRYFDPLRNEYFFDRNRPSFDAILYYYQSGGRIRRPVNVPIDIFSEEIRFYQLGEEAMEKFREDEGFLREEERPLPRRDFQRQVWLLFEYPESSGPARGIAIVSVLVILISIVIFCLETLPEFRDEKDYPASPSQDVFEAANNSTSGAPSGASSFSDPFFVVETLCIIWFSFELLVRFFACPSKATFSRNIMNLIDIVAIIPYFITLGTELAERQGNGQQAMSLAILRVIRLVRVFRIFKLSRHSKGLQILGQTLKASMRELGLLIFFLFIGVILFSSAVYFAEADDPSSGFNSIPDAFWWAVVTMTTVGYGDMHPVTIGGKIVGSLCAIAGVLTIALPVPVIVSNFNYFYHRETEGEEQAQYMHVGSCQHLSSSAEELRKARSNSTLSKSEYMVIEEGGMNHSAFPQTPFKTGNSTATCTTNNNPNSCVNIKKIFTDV

As to `COc1cc(OC)c(CCC(=O)c2ccc(O)cc2)c(OC)c1` [LrB, Loureirin B], the IC50 came to 6.33 ± 0.49 µM.
